Entries after “also recorded” stand apart in the source; their conditions may differ.
Legend:
SH-SY5Y cells [1] = test: Neuroprotection against Aβ42-induced toxicity (MTT reduction); assay type: cell-based, human; details: 1 h pre-incubation + 24 h with Aβ42 1 µM, 4d at 3 µM
Protocol: (§1) SH-SY5Y human neuroblastoma cells (ATCC-CRL-2266) were kept in culture using Dulbecco’s Modified Eagle Medium (DMEM) (Gibco-Invitrogen, Life Technologies Ltd., Waltham, MA, USA) containing 10% heat-inactivated fetal bovine serum (FBS), 50 U mL^−1 penicillin and 50 μg mL^−1 streptomycin. Incubation of the cells occurred at 37 °C in 5% CO2. The toxicity of the compounds was tested through cell viability assays, with cells seeded with a density of 0.24 × 10^6 cells mL^−1. DMSO was used to dissolve each tested compound (4a–4d, 5a, 5b), affording stock solutions with concentrations of 25 mM. Aliquots of these solutions were stored at −20 °C. Concentrations from 1 μM to 10 μM were screened in order to select the highest non-toxic concentration of each compound. Consequently, compounds 4a, 4b and 5b were tested at 1 μM final concentration; compounds 4c and 5a were tested at 2 μM final concentration; compound 4d was tested at a final concentration of 3 μM. The DMSO concentrations in the culture media were lower than 0.05% (v/v) and the viability of the SH-SY5Y cells was not altered in a detectable manner. […]
(§2) The colorimetric MTT (3-(4,5-dimethylthiazol-2-yl)-2,5-diphenyltetrazolium bromide) reduction assay was used to determine cell viability. […] The absorbance of each well was measured at 570 nm. […]
(§3) All data were expressed as means ± SEMs of at least five independent experiments performed in duplicate. […]

SH-SY5Y cells [2] = test: Neuroprotection against Fe/Ascorbate toxicity (MTT reduction); assay type: cell-based, human; details: 1 h pre-incubation + 24 h with Fe 2.5 mM/Asc 5 mM, 5a at 2 µM
Protocol: as §1, §2, §3

Compound	Neuroprotective effect against Aβ42-induced toxicity (cell viability, MTT) (SH-SY5Y cells [1])	Neuroprotective effect against Fe/Ascorbate toxicity (cell viability, MTT) (SH-SY5Y cells [2])
CCN(C)C(=O)Oc1ccc(CCCNC(=O)c2ccc3nc(-c4ccccc4O)[nH]c3c2)cc1 [Compound 4d, 4-(3-(2-(2-Hydroxyphenyl)-1H-benzo[d]imidazole-6-carboxamido)propyl) Phenyl Ethylmethylcarbamate]	significantly prevented Aβ-induced cell toxicity; also recorded: best neuroprotective capacities	–
CCN(C)C(=O)Oc1cccc(NC(=O)c2cccc3[nH]c(-c4ccccc4O)nc23)c1 [Compound 5a, 3-(2-(2-Hydroxyphenyl)-1H-benzo[d]imidazole-4-carboxamido)phenyl Ethylmethylcarbamate]	–	statistically significant neuroprotective effect; also recorded: best neuroprotective capacities
